According to the kinase profiling compilation of Christmann-Franck et al. (2016):

Key:
Test in all cases: KINOMEscan competition binding
Conditions in all cases: compound 10.0 µM
[1] = tested on: EGFR (human), P00533 [L858R]
CDK15 (human) = CDK15 (human) (UniProt Q96Q40)
TSSK1B (human) = TSSK1B (human) (UniProt Q9BXA7)
[2] = target: JAK1 JH2 pseudokinase (human) (UniProt P23458)
NTRK2 (human) = NTRK2 (human) (UniProt Q16620)
CaMK1 (human) = CaMK1 (human) (UniProt Q14012)
DCLK3 (human) = DCLK3 (human) (UniProt Q9C098)
IRAK3 (human) = IRAK3 (human) (UniProt Q9Y616)
GSK3B (human) = GSK3B (human) (UniProt P49841)
SLK (human) = SLK (human) (UniProt Q9H2G2)
EPHB6 (human) = EPHB6 (human) (UniProt O15197)
PRKG1 (human) = PRKG1 (human) (UniProt Q13976)
ANKK1 (human) = ANKK1 (human) (UniProt Q8NFD2)
MAP3K11 (human) = MAP3K11 (human) (UniProt Q16584)
BTK (human) = BTK (human) (UniProt Q06187)
SIK3 (human) = SIK3 (human) (UniProt Q9Y2K2)
BMPR1A (human) = BMPR1A (human) (UniProt P36894)
CLK4 (human) = CLK4 (human) (UniProt Q9HAZ1)
IKBKE (human) = IKBKE (human) (UniProt Q14164)
MYLK4 (human) = MYLK4 (human) (UniProt Q86YV6)
ABL2 (human) = ABL2 (human) (UniProt P42684)
FGFR2 (human) = FGFR2 (human) (UniProt P21802)
INSRR (human) = INSRR (human) (UniProt P14616)
PHKG2 (human) = PHKG2 (human) (UniProt P15735)
TNK1 (human) = TNK1 (human) (UniProt Q13470)
STK33 (human) = STK33 (human) (UniProt Q9BYT3)
MAP3K7 (human) = MAP3K7 (human) (UniProt O43318)
TAOK1 (human) = TAOK1 (human) (UniProt Q7L7X3)
ERBB2 (human) = ERBB2 (human) (UniProt P04626)
TNIK (human) = TNIK (human) (UniProt Q9UKE5)
CDK8 (human) = CDK8 (human) (UniProt P49336)
HUNK (human) = HUNK (human) (UniProt P57058)
RIPK1 (human) = RIPK1 (human) (UniProt Q13546)
RPS6KA4 KD1 (human) = RPS6KA4 KD1 (human) (UniProt O75676)
DYRK2 (human) = DYRK2 (human) (UniProt Q92630)
ACVR2B (human) = ACVR2B (human) (UniProt Q13705)
MAP2K5 (human) = MAP2K5 (human) (UniProt Q13163)
TESK1 (human) = TESK1 (human) (UniProt Q15569)
FES (human) = FES (human) (UniProt P07332)
[3] = tested on: PIK3CA (human), P42336 [M1043I]
PIK3CA (human), P42336 [M1043I], sequence (P42336 whole entry M1043I, looked up): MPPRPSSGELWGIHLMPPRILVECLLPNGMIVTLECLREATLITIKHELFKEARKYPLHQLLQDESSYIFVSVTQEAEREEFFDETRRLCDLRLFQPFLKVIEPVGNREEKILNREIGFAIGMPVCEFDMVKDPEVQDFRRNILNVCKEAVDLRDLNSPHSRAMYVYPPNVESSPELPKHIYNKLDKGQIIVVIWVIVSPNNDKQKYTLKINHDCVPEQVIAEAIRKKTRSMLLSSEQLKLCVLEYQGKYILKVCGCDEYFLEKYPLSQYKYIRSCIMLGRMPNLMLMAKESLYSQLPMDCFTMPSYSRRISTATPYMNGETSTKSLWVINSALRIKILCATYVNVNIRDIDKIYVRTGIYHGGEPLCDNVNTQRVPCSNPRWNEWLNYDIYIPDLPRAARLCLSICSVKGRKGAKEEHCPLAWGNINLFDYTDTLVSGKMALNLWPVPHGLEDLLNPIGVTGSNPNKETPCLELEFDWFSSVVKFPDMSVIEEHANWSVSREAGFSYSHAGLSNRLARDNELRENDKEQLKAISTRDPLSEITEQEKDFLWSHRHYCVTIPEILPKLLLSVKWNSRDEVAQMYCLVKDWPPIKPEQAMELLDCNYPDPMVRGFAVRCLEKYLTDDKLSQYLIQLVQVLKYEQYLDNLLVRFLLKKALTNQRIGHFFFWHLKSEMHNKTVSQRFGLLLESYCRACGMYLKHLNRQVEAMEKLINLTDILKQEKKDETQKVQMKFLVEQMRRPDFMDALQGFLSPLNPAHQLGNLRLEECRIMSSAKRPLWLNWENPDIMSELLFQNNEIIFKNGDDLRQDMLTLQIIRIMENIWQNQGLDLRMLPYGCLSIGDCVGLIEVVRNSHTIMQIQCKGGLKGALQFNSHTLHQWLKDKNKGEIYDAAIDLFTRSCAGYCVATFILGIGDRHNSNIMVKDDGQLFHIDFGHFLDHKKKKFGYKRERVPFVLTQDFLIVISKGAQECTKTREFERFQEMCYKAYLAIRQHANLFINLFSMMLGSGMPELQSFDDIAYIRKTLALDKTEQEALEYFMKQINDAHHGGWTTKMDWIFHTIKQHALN

TSSK1B (human), sequence (Q9BXA7 whole entry, looked up): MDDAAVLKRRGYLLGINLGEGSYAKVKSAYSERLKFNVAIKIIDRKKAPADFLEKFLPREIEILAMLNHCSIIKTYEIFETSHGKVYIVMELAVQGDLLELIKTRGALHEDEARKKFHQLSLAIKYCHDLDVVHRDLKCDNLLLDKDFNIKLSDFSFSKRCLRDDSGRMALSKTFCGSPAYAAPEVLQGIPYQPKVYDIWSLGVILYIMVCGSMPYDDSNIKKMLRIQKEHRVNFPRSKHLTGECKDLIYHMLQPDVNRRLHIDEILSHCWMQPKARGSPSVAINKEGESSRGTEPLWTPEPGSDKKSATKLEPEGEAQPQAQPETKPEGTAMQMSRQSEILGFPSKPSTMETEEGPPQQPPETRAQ
TESK1 (human), sequence (Q15569 whole entry, looked up): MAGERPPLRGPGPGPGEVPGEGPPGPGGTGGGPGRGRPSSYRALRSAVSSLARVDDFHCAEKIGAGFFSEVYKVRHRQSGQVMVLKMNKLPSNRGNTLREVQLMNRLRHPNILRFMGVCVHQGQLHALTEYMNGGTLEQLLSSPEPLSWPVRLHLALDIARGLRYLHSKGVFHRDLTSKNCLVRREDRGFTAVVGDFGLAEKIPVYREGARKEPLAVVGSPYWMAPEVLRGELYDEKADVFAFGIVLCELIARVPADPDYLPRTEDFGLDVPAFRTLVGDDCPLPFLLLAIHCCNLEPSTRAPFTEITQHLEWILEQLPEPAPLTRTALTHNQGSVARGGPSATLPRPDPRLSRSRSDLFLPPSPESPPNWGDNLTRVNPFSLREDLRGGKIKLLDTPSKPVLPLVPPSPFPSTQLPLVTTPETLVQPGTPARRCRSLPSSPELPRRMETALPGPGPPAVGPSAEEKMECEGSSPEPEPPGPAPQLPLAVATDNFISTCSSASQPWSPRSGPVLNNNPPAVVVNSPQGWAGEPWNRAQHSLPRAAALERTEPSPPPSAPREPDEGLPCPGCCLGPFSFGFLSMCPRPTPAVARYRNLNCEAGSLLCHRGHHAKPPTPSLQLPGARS
DCLK3 (human), sequence (Q9C098 whole entry, looked up): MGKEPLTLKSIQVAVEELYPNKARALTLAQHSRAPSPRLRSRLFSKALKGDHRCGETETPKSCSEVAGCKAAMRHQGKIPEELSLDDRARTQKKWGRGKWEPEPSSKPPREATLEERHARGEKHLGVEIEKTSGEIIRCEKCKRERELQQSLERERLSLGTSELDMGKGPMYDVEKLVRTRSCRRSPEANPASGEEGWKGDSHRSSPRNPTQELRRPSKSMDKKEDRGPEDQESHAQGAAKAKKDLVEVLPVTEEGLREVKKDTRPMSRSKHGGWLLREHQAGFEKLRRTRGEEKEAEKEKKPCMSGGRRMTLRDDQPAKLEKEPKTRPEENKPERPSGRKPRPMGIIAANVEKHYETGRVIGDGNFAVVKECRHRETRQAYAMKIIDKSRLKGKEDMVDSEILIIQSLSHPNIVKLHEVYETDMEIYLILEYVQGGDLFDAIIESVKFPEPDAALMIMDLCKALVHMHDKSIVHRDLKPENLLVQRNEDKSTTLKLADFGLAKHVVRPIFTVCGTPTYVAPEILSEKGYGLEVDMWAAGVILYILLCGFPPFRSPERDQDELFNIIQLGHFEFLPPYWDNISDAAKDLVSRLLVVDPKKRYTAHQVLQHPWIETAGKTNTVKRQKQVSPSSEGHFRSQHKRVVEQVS
MAP3K7 (human), sequence (O43318 whole entry, looked up): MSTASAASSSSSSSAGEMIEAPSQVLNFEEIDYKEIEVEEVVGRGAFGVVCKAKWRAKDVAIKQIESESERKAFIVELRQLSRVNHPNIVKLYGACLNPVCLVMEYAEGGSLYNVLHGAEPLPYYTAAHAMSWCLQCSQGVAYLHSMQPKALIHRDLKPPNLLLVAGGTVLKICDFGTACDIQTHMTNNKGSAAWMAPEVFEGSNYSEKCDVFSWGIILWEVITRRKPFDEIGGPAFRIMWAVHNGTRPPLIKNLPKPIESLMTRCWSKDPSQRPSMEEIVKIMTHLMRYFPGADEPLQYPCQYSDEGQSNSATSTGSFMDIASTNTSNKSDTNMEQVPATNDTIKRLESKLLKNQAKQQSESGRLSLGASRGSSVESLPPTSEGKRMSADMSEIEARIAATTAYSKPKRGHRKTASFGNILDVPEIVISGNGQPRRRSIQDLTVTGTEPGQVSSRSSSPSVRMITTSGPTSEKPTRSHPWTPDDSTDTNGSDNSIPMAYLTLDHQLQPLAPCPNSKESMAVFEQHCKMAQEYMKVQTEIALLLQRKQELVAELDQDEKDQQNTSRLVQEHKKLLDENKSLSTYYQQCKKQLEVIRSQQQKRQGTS
ANKK1 (human), sequence (Q8NFD2 whole entry, looked up): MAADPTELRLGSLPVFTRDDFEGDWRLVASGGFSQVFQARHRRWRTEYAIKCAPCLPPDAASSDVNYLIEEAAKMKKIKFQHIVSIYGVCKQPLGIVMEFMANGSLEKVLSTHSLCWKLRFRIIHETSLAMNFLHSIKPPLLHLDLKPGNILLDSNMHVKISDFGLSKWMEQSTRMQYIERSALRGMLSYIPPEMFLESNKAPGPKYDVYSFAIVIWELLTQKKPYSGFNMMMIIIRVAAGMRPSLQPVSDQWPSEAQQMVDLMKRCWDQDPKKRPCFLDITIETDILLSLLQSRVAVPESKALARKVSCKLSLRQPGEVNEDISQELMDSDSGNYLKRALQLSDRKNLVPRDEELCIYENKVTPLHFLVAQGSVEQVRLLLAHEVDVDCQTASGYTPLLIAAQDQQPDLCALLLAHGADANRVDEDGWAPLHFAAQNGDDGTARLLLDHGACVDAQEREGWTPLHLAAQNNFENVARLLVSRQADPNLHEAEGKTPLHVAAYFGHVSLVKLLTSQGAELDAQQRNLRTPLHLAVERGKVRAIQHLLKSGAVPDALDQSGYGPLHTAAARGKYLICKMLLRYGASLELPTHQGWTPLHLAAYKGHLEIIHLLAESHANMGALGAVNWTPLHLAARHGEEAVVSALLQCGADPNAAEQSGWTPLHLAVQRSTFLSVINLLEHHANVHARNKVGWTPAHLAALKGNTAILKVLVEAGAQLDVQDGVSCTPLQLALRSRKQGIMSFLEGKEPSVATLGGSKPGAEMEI
CDK15 (human), sequence (Q96Q40 whole entry, looked up): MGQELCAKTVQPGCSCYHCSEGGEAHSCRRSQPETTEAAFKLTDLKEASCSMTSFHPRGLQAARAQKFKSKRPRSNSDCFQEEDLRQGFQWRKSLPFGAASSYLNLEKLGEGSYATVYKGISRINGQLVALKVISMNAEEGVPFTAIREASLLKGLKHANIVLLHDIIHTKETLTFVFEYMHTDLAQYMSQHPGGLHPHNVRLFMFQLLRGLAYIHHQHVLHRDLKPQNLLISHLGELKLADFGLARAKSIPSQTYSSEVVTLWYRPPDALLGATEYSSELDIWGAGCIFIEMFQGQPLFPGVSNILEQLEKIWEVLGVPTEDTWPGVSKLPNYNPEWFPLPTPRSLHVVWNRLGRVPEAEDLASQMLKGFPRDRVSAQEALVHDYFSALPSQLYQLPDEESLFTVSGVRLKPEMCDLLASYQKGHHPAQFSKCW
MAP2K5 (human), sequence (Q13163 whole entry, looked up): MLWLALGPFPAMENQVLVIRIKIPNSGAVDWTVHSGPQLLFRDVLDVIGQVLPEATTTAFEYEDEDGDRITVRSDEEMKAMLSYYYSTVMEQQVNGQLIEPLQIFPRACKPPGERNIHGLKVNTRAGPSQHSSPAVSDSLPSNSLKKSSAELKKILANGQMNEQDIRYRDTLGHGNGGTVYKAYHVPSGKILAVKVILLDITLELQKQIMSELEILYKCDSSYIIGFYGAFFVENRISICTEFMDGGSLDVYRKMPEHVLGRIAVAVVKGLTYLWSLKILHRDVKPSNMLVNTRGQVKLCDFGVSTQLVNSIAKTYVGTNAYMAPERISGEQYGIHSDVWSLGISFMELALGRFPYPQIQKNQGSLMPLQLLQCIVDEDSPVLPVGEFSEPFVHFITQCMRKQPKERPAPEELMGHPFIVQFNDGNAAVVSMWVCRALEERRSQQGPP

SMILES	kinase still bound, per cent of control (CDK15 (human))	kinase still bound, per cent of control (TSSK1B (human))	kinase still bound, per cent of control [2]	kinase still bound, per cent of control (NTRK2 (human))	kinase still bound, per cent of control (CaMK1 (human))	kinase still bound, per cent of control (DCLK3 (human))	kinase still bound, per cent of control (IRAK3 (human))	kinase still bound, per cent of control (GSK3B (human))	kinase still bound, per cent of control (SLK (human))	kinase still bound, per cent of control (EPHB6 (human))	kinase still bound, per cent of control (PRKG1 (human))	kinase still bound, per cent of control (ANKK1 (human))	kinase still bound, per cent of control (MAP3K11 (human))	kinase still bound, per cent of control (BTK (human))	kinase still bound, per cent of control (SIK3 (human))	kinase still bound, per cent of control (BMPR1A (human))	kinase still bound, per cent of control (CLK4 (human))	kinase still bound, per cent of control (IKBKE (human))	kinase still bound, per cent of control (MYLK4 (human))	kinase still bound, per cent of control (ABL2 (human))	other results
C=CC(=O)Nc1ccc(C(=O)c2sc(Nc3ccc(N4CCN(C)CC4)cc3OC)nc2N)cc1	87%	44%	65%	100%	8.2%	3.8%	96%	100%	32%	64%	74%	100%	100%	94%	95%	91%	1.6%	84%	66%	100%	kinase still bound, per cent of control [1]: 39%; kinase still bound, per cent of control (FGFR2 (human)): 49%; kinase still bound, per cent of control (INSRR (human)): 78%; kinase still bound, per cent of control (PHKG2 (human)): 3%; kinase still bound, per cent of control (TNK1 (human)): 22%; kinase still bound, per cent of control (STK33 (human)): 39%; kinase still bound, per cent of control (MAP3K7 (human)): 73%; kinase still bound, per cent of control (TAOK1 (human)): 32%; kinase still bound, per cent of control (ERBB2 (human)): 77%; kinase still bound, per cent of control (TNIK (human)): 6%; kinase still bound, per cent of control (CDK8 (human)): 100%; kinase still bound, per cent of control (HUNK (human)): 33%; kinase still bound, per cent of control (RIPK1 (human)): 100%; kinase still bound, per cent of control (RPS6KA4 KD1 (human)): 95%; kinase still bound, per cent of control (DYRK2 (human)): 4.2%; kinase still bound, per cent of control (ACVR2B (human)): 100%; kinase still bound, per cent of control (MAP2K5 (human)): 100%; kinase still bound, per cent of control (TESK1 (human)): 100%; kinase still bound, per cent of control (FES (human)): 52%; kinase still bound, per cent of control [3]: 100%
N#C/C(=C1/Nc2ccccc2S1)c1ccnc(NCCc2cccnc2)n1	86%	100%	2.6%	56%	73%	100%	38%	0.15%	100%	3.2%	100%	5.6%	93%	77%	100%	98%	29%	100%	16%	100%	kinase still bound, per cent of control (FGFR2 (human)): 100%; kinase still bound, per cent of control (INSRR (human)): 100%; kinase still bound, per cent of control (PHKG2 (human)): 78%; kinase still bound, per cent of control (TNK1 (human)): 46%; kinase still bound, per cent of control (STK33 (human)): 86%; kinase still bound, per cent of control (MAP3K7 (human)): 22%; kinase still bound, per cent of control (TAOK1 (human)): 38%; kinase still bound, per cent of control (ERBB2 (human)): 8.5%; kinase still bound, per cent of control (TNIK (human)): 70%; kinase still bound, per cent of control (CDK8 (human)): 100%; kinase still bound, per cent of control (HUNK (human)): 92%; kinase still bound, per cent of control (RIPK1 (human)): 100%; kinase still bound, per cent of control (RPS6KA4 KD1 (human)): 100%; kinase still bound, per cent of control (DYRK2 (human)): 0.7%; kinase still bound, per cent of control (ACVR2B (human)): 98%; kinase still bound, per cent of control (MAP2K5 (human)): 0.8%; kinase still bound, per cent of control (TESK1 (human)): 87%; kinase still bound, per cent of control (FES (human)): 100%; kinase still bound, per cent of control [3]: 84%
